Measured values: ChEMBL document CHEMBL1201862, “PubChem BioAssay data set” (2004)
Activity calls are given as the source filed them.

Assays:
Format in all cases: functional
[1] = target: T1, Corticotropin-releasing factor receptor 2/Corticotropin-releasing factor-binding protein (Homo sapiens, UniProt P24387+Q13324); experiment: activators of CRF receptor 2 with binding protein – uHTS hits, confirmation (AID 602473); conditions: read-out: EC50_Mean
T1 sequence (Q13324 whole entry): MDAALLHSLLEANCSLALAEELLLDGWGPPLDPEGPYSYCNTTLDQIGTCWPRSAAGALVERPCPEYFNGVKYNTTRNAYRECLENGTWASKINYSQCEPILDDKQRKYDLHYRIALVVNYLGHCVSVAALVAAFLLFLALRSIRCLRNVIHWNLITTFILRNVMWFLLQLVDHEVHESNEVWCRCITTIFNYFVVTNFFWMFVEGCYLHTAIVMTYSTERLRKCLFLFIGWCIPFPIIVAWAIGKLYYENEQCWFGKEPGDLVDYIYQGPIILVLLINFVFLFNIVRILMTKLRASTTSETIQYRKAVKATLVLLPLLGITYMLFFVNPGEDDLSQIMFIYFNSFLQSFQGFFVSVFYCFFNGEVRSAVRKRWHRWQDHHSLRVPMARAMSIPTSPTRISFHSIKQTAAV
T1 sequence (P24387 whole entry): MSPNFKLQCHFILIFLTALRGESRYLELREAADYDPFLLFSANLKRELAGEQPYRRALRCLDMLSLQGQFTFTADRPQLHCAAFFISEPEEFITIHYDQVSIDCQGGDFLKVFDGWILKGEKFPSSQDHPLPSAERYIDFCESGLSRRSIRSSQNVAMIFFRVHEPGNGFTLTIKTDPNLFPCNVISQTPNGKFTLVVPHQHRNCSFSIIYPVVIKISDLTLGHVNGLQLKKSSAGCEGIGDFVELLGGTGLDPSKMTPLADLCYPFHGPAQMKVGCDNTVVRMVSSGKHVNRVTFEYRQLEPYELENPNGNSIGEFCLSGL

[2] = target: T2, Short transient receptor potential channel 4 (Mus musculus, UniProt Q9QUQ5); experiment: calcium entry via TRPC4 opening agents – cell-based, HEK293 TRPC4/mu-opioid, Fluo-4 calcium, dose response (AID 434937)
T2 sequence (Q9QUQ5 whole entry): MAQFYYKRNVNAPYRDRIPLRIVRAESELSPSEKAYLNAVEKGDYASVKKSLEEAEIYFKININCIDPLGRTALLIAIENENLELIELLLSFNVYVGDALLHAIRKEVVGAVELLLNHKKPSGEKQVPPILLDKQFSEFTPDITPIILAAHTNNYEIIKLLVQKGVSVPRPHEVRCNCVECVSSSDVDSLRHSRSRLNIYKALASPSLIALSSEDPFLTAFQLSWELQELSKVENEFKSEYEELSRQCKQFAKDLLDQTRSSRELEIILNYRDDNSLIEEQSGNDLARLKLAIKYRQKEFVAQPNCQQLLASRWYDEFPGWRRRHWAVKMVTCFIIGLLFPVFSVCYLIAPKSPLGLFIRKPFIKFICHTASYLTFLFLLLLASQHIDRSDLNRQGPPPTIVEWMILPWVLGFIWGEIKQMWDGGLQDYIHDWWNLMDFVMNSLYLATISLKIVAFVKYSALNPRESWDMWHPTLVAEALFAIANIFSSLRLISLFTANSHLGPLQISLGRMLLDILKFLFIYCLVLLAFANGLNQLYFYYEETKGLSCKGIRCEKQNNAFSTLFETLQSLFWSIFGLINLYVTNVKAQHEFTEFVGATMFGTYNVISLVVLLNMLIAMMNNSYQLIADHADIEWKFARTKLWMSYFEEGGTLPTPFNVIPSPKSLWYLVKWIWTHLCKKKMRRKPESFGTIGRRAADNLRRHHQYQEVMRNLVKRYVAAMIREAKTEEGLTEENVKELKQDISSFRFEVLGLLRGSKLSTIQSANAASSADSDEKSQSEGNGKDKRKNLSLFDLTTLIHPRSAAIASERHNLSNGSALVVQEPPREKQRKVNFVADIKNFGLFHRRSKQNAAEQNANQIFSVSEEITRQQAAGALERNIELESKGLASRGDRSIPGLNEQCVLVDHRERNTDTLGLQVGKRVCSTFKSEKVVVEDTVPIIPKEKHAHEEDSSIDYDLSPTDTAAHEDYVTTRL

HeLa = experiment: ATP-based viability loss in HeLa cells – cell-based, CellTiter-Glo luminescence, cherry-pick samples, cytotoxicity control for MITF activator project, dose response (AID 540259); conditions: Homo sapiens
[3] = target: T3, Carboxy-terminal domain RNA polymerase II polypeptide A small phosphatase 1 (Homo sapiens, UniProt Q9GZU7); experiment: CTDSP1 inhibitors, concentration-response, biochemical, absorbance readout, ultra-high-throughput screen actives (AID 540297)
T3 sequence (Q9GZU7 whole entry): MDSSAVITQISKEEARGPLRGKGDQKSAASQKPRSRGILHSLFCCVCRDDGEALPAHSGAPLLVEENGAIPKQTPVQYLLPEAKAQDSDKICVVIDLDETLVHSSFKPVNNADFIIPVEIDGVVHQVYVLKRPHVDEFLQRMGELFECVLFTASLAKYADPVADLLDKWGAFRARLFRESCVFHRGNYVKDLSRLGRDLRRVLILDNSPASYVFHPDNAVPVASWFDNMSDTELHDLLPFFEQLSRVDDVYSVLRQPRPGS

[4] = target: Glucose-6-phosphate 1-dehydrogenase (Homo sapiens, UniProt P11413); experiment: inhibition of Homo sapiens G6PD, dose series – biochemical, fluorescence, selectivity assay for P. falciparum G6PD inhibitor project, dose response (AID 504792)
Glucose-6-phosphate 1-dehydrogenase, sequence (P11413 whole entry): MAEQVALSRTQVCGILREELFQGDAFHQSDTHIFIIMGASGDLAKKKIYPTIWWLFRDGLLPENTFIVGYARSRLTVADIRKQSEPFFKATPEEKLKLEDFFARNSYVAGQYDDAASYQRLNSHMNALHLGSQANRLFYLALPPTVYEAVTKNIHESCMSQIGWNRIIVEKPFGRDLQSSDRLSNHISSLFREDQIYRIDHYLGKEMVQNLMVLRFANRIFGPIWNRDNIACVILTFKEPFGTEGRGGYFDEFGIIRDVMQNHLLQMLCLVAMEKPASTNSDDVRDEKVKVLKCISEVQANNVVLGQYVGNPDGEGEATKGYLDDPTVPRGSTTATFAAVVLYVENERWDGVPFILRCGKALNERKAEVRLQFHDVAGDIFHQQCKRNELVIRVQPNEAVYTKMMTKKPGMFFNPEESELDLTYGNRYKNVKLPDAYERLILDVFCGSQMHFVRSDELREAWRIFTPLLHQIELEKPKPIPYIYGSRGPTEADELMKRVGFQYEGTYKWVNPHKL

[5] = target: T4, Endoribonuclease toxin MazF (Escherichia coli K-12, UniProt P0AE70); experiment: activation of MazEF endoribonuclease cleavage – biochemical, fluorescence, single-stranded RNA substrate, uHTS hits, dose response (AID 588481)
T4 sequence (P0AE70 whole entry): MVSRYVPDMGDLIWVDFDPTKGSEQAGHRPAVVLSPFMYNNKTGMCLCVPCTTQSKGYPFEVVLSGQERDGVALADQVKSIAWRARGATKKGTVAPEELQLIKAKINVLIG

Genome polyprotein = Genome polyprotein (dengue virus type 2, UniProt P29990); experiment: flavivirus cap methylation enzyme inhibition – biochemical, confirmation dose response, primary screen (AID 588689)
Genome polyprotein, sequence (P29990 2492-3391 limits assumed): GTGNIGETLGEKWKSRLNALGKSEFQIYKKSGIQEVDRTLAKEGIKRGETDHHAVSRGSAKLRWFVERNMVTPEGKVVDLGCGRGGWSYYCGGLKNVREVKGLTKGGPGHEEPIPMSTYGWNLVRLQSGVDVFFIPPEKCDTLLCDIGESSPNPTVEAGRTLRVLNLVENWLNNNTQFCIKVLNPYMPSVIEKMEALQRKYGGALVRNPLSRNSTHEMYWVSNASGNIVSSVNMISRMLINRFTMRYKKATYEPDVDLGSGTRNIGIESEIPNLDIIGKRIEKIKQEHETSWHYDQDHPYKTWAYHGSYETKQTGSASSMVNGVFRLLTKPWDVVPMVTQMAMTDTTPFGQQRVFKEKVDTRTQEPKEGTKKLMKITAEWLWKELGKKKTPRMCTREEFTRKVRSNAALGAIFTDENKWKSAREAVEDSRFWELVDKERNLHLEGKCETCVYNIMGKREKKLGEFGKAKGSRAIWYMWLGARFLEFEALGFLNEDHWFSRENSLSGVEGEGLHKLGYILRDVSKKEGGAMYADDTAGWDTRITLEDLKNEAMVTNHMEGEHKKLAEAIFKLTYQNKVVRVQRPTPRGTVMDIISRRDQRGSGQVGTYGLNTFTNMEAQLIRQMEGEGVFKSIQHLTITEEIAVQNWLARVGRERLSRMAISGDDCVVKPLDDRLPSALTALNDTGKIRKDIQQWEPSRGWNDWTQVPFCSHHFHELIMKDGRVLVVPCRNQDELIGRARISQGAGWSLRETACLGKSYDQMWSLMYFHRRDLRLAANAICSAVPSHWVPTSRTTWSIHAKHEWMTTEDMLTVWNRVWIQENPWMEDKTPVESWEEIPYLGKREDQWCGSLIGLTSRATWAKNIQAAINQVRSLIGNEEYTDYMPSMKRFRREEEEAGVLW

[6] = target: T4, Endoribonuclease toxin MazF; experiment: substrate-only fluorescence increase artefacts – biochemical, single-stranded RNase substrate, counter-screen for MazEF activator project, dose response (AID 588502)
[7] = target: T5, Sentrin-specific protease 1 (Homo sapiens, UniProt Q9P0U3); experiment: SENP1 catalytic domain blockers, concentration series – biochemical, kinetic FRET, dose response (AID 651697); conditions: read-out: IC50_Mean
T5 sequence (Q9P0U3 whole entry): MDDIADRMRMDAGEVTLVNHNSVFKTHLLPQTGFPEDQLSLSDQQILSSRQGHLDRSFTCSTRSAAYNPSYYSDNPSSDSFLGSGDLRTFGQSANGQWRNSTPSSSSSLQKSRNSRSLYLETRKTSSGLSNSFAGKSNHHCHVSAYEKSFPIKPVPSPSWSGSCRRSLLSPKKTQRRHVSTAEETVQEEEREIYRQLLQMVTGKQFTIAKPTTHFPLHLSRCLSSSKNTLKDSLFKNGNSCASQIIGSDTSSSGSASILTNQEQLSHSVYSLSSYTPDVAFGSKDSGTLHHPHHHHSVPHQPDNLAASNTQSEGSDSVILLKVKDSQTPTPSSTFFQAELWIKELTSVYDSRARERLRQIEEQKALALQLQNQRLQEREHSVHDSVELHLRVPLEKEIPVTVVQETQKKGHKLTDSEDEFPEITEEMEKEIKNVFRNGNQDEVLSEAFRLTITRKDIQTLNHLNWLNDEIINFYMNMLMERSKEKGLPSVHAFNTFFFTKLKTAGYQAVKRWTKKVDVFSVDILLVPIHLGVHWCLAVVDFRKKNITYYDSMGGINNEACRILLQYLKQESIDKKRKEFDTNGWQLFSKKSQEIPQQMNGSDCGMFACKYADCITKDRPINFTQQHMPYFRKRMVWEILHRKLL

[8] = target: T5, Sentrin-specific protease 1; experiment: Dose response confirmation of small molecule inhibitors of the catalytic domain of the SUMO protease, SENP1 in a FRET assay.; conditions: read-out: IC50_Mean

For `Cc1nc2ccccn2c1P(=S)(N1CCCCC1)N1CCCCC1`, the EC50 [1] was 23.7 µM (active) and the EC50 [2] was 5.96 µM (active).
With `CCCN(CCC)c1ncnc2c1cnn2-c1ccc(OC)cc1` the AC50 (HeLa) was 46.3 µM (active).
`Cc1cc(N=NC(=O)c2ccccc2O)c2ccccc2c1O` was tested, and the IC50 [3] was 5.15 µM (active) and the IC50 [4] was > 80 µM (inactive).
With `Cc1cccc(C(=O)Oc2ccc(/C=N/O)cc2)c1` the AC50 (HeLa) was 41 µM (active).
`COc1cc(/C=N/Nc2nncn2N)ccc1OCc1c(C)no[n+]1[O-]` was tested, and the IC50 [4] was 56.3 µM (inactive).
In the case of `COc1ccc(OC)c(/C=N/N(C)c2ccccc2)c1`, the AC50 (HeLa) is reported as 44.7 µM (active).
With `Cc1ccsc1/C=N/NC(=O)Nc1ccccc1` the AC50 (HeLa) was 60.6 µM (active).
In the case of `Cn1c(=O)c2[nH]c(-c3ccccc3)c(O)c2n(C)c1=O`, the EC50 [5] is reported as 33.8 µM (inactive), the EC50 [1] is reported as > 53 µM (inactive) and the IC50 (Genome polyprotein) is reported as 18.5 µM (active). For the same molecule, the IC50 [4] was > 80 µM (inactive), the EC50 [6] was 23.3 µM (inactive) and the IC50 [7] was 5.99 µM (active). The IC50 [8] was 5.27 µM (active).
